{"source": "patent US6313153A", "about": "“Compositions and methods for treating nephritis and inhibiting TGF -β related conditions using pyridylacrylamide derivatives” (Tsumura & Co., priority 1997, dated 2001)", "system": "anti-GBM nephritic mice", "experiment": "anti-GBM nephritic mice: proteinuria, serum cholesterol, blood urea nitrogen and serum creatinine;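 as to Proteinuria 10th day: minus not effective plus trend double p<0.05 triple p<0.01 quadruple p<0.001 improvement vs control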;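 as to Proteinuria 5th day: minus not effective plus trend double p<0.05 triple p<0.01 quadruple p<0.001 improvement vs control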;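 as to Serum Parameter BUN (blood urea nitrogen): minus not effective plus trend double p<0.05 triple p<0.01 quadruple p<0.001 improvement vs control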;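 as to Serum Parameter S-Ch (serum cholesterol): minus not effective plus trend double p<0.05 triple p<0.01 quadruple p<0.001 improvement vs control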", "assay_type": "in vivo, BALB/c mice", "settings": "for Total Evaluation: 3 × (number of + in proteinuria) + (number of + in serum parameter); for Proteinuria 5th day: 5th day from intravenous injection of anti-GBM serum; for Proteinuria 5th day / Proteinuria 10th day / Serum Parameter BUN (blood urea nitrogen) / Serum Parameter S-Ch (serum cholesterol) / Serum Parameter S-Cr (serum creatinine): oral; for Proteinuria 10th day: 10th day from intravenous injection of anti-GBM serum; for Serum Parameter BUN (blood urea nitrogen) / Serum Parameter S-Ch (serum cholesterol) / Serum Parameter S-Cr (serum creatinine): 11th day", "procedure": "BALB/c mice (5 weeks old, purchased from Nippon Charles Liver) were quarantined and adapted for about 1 week before subjecting to experiments. These mice were divided into several groups for the experiments so that average body weights and standard deviations were almost identical in all groups. Mouse anti-GBM (glomerular basement membrane) nephritis was caused by immunizing the mice with rabbit γ-globulin (1 mg) with Freund's complete adjuvant and intravenously injecting rabbit anti-mouse GBM serum on the fifth day from the immunization. Each compound tested was forcedly orally administered via an oral sonde almost simultaneously with the intravenous injection of the anti-GBM serum. On the 5th and 10th days from the intravenous injection, urine was taken by a plastic metabolic cage and proteinuria was measured (Ohtsuka Tonein TP2). On the 11th day, blood was taken by cutting the carotid and serum cholesterol (S--Ch), blood urea nitrogen (BUN) and serum creatinine (S--Cr) were measured by Toshiba TBA-380 autoanalyzer.", "data": [{"smiles": "CN(CCc1ccc(-c2ccccc2)cc1)C(=O)/C=C/c1cccnc1", "note": "[Compound 52]", "values": [{"measurement": "Total Evaluation", "value": 10}, {"measurement": "Proteinuria 5th day", "value": "+"}, {"measurement": "Proteinuria 10th day", "value": "+"}, {"measurement": "Serum Parameter BUN (blood urea nitrogen)", "value": "+"}, {"measurement": "Serum Parameter S-Ch (serum cholesterol)", "value": "+"}, {"measurement": "Serum Parameter S-Cr (serum creatinine)", "value": "++"}]}, {"smiles": "COc1ccc(C(=O)CN(C)C(=S)/C=C/c2cccnc2)cc1OC", "note": "[Compound 165, (E)-N-[2-(3,4-dimethoxyphenyl)-2-oxoethyl]-N-methyl-3-(3-pyridyl)-2-propenoic acid thioamide]", "values": [{"measurement": "Total Evaluation", "value": 22}, {"measurement": "Proteinuria 5th day", "value": "+++"}, {"measurement": "Proteinuria 10th day", "value": "+++"}, {"measurement": "Serum Parameter BUN (blood urea nitrogen)", "value": "+"}, {"measurement": "Serum Parameter S-Ch (serum cholesterol)", "value": "+++"}, {"measurement": "Serum Parameter S-Cr (serum creatinine)", "value": "-"}]}, {"smiles": "COc1ccc(C(=O)CN(C)C(=O)/C=C/c2cccnc2)cc1OC", "note": "[Compound 155, (E) -N-[2-(3,4-dimethoxyphenyl)-2-oxoethyl]-N-methyl-3-(3-pyridyl)-2-propenoicacid amide]", "values": [{"measurement": "Total Evaluation", "value": 28}, {"measurement": "Proteinuria 5th day", "value": "++++"}, {"measurement": "Proteinuria 10th day", "value": "++++"}, {"measurement": "Serum Parameter BUN (blood urea nitrogen)", "value": "+"}, {"measurement": "Serum Parameter S-Ch (serum cholesterol)", "value": "+++"}, {"measurement": "Serum Parameter S-Cr (serum creatinine)", "value": "-"}]}, {"smiles": "COc1cccc(CCN(C)C(=O)/C=C/c2cccnc2)c1OC", "note": "[Compound 13]", "values": [{"measurement": "Total Evaluation", "value": 13}, {"measurement": "Proteinuria 5th day", "value": "+"}, {"measurement": "Proteinuria 10th day", "value": "+++"}, {"measurement": "Serum Parameter BUN (blood urea nitrogen)", "value": "+"}, {"measurement": "Serum Parameter S-Ch (serum cholesterol)", "value": "-"}, {"measurement": "Serum Parameter S-Cr (serum creatinine)", "value": "+"}]}, {"smiles": "CN(CCc1ccc(Cl)c(Cl)c1)C(=O)/C=C/c1cccnc1", "note": "[Compound 25]", "values": [{"measurement": "Total Evaluation", "value": 13}, {"measurement": "Proteinuria 5th day", "value": "+"}, {"measurement": "Proteinuria 10th day", "value": "++"}, {"measurement": "Serum Parameter BUN (blood urea nitrogen)", "value": "+"}, {"measurement": "Serum Parameter S-Ch (serum cholesterol)", "value": "+++"}, {"measurement": "Serum Parameter S-Cr (serum creatinine)", "value": "+"}]}, {"smiles": "CCOC(=O)COc1ccc(CN(C)C(=O)/C=C/c2cccnc2)cc1", "note": "[Compound 95]", "values": [{"measurement": "Total Evaluation", "value": 9}, {"measurement": "Proteinuria 5th day", "value": "+"}, {"measurement": "Proteinuria 10th day", "value": "+"}, {"measurement": "Serum Parameter BUN (blood urea nitrogen)", "value": "++"}, {"measurement": "Serum Parameter S-Ch (serum cholesterol)", "value": "+"}, {"measurement": "Serum Parameter S-Cr (serum creatinine)", "value": "-"}]}, {"smiles": "CCOC(=O)COc1ccc(CCNC(=O)/C=C/c2cccnc2)cc1", "note": "[Compound 101]", "values": [{"measurement": "Total Evaluation", "value": 8}, {"measurement": "Proteinuria 5th day", "value": "-"}, {"measurement": "Proteinuria 10th day", "value": "++"}, {"measurement": "Serum Parameter BUN (blood urea nitrogen)", "value": "-"}, {"measurement": "Serum Parameter S-Ch (serum cholesterol)", "value": "-"}, {"measurement": "Serum Parameter S-Cr (serum creatinine)", "value": "++"}]}, {"smiles": "NC(=O)COc1cccc(CCNC(=O)/C=C/c2cccnc2)c1", "note": "[Compound 115]", "values": [{"measurement": "Total Evaluation", "value": 10}, {"measurement": "Proteinuria 5th day", "value": "-"}, {"measurement": "Proteinuria 10th day", "value": "+"}, {"measurement": "Serum Parameter BUN (blood urea nitrogen)", "value": "++"}, {"measurement": "Serum Parameter S-Ch (serum cholesterol)", "value": "++"}, {"measurement": "Serum Parameter S-Cr (serum creatinine)", "value": "+++"}]}, {"smiles": "O=C(/C=C/c1cccnc1)NCC(=O)c1cccc(O)c1", "note": "[Compound 160, (E)-N-(3-hydroxyphenacyl)-3-(3-pyridyl)-2-propenoic acid amide]", "values": [{"measurement": "Total Evaluation", "value": 14}, {"measurement": "Proteinuria 5th day", "value": "+++"}, {"measurement": "Proteinuria 10th day", "value": "+"}, {"measurement": "Serum Parameter BUN (blood urea nitrogen)", "value": "-"}, {"measurement": "Serum Parameter S-Ch (serum cholesterol)", "value": "++"}, {"measurement": "Serum Parameter S-Cr (serum creatinine)", "value": "-"}]}]}
